Data published in patent publication US20240101685A1, “NEAR INFRARED PHOTOIMMUNOTHERAPY (NIR-PIT) COMBINATION THERAPY TO TREAT CANCER” (THE UNITED STATES OF AMERICA, as represented by the …, priority 2021, published 2024).

Tests used:
mEERL-hEGFR tumors [1] = tested on: mEERL-hEGFR tumors; set-up: tumor volume: dose or concentration left out as unconfirmed
Method: The lower part of the body of the mice was shaved before NIR light irradiation and image analysis. Tumors were established via subcutaneous injection of 1×10^6 cells in the right or both side of dorsal flank for each model. Mice with tumors reaching approximately 50-100 mm^3 in volume were used for the experiments. Mice were monitored each day, and tumor volume (tumor volume=length×width^2×0.5) was measured twice a week until the tumor volume reached 2,000 mm^3, whereupon the mice were euthanized with inhalation of carbon dioxide gas. In a bilateral model, the mice were euthanized when either tumor reached its humane endpoint. Tumor disappearance for 4 weeks or longer after treatment was defined as complete remission.
The mixed antibody/APC was injected 6 days after inoculation of cancer cells into C57BL/6 mice. Twenty-four hours after administration, NIR light (690 nm, 150 mW/cm^2) was irradiated to tumors at 50 J/cm^2 in all groups. The surface of the mouse other than the tumor was covered with aluminum foil. […] In the bilateral model, NIR light (690 nm, 150 mW/cm^2) was given only to right-sided tumors at 50 J/cm^2 and the remainder of the mouse (including the left-sided tumor) was covered with aluminum foil during irradiation.

mEERL-hEGFR tumors [2] = test: Histologic analysis (H-E staining) 1 hour after NIR-PIT; assay type: in vivo, C57BL/6 mice; conditions: tumors harvested 1 hour after light exposure
Description: Tumors from mEERL-hEGFR, MC38-luc, and LLC tumors were harvested, formalin-fixed and paraffin-embedded, and sectioned at […]. Following standard hematoxylin and eosin (HE) staining, bright-light photomicrographs were obtained using Mantra Quantitative Pathology Workstation (PerkinElmer).

A431 GFP-luc cells = test: In vitro NIR-PIT with reducing agents, PI staining; conditions: for cytotoxicity of Pan-PIT in the presence of NaN3: 10 mM NaN3
Method: (§2) A431 GFP-luc or MDAMB468 GFP-luc cells (4×10^5) were seeded into 12-well plates, and incubated for 24 hours, and then exposed to media containing panitumumab-IR700 (10 μg mL^−1) for 1 hour at 37° C. […] NIR light (690 nm, 150 mW cm^−2, 1 or 2 J cm^−2 for A431 GFP-luc, 20 J cm^−2 for MDAMB468 GFP-luc) was irradiated to cancer cells. For flow cytometric analyses, the cells were collected with trypsin one hour after NIR light exposure. Cells were then stained with propidium iodide (PI, 1 μg mL^−1) at RT for 5 minutes. The fluorescence of the cells was then analyzed with a flow cytometer (FACSCalibur, BD Biosciences, San Jose, CA, USA) and FlowJo software (BD Biosciences).

[3] = IR700 with L-cysteine, NaN3 added
[4] = Method: Before and after each irradiation, the 700 nm fluorescence intensity was acquired by a fluorescence imager (Pearl Imager, LI-COR Bioscience, Lincoln, NE, USA). Pearl Cam Software (LI-COR Biosciences) was used for analyzing fluorescence. The same regions of interest (ROIs) were put on the solution in each tube, and then mean 700 nm fluorescence intensity was measured. The appearance of the tube before and after NIR light irradiation was imaged. All the experiments were carried out at RT.
[5] = IR700 at 689 nm; Photofrin 630 nm; Foscan 652 nm; NPe6/Laserphyrin 654 nm; cited from earlier work
mEERL-hEGFR cells = test: In vitro NIR-PIT, PI staining and MTT assay; assay type: cell-based, murine
Method: After washing with PBS, phenol-red-free RPMI 1640 medium was added. NIR light (690 nm) was irradiated to cancer cells with an ML7710 laser system (Modulight, Tampere, Finland) at a power density of 150 mW/cm^2. One hour after NIR-PIT, the cells were collected with trypsin, and stained with propidium iodide (PI, 1 μg/mL) at room temperature for 5 minutes, and then assessed for PI positivity on a BD FACSCalibur (BD Biosciences) using CellQuest software (BD Biosciences) using FlowJo software (FlowJo LLC). To assess cell viability, cell proliferation was evaluated by 3-(4,5-Dimethyl-2-thiazolyl)-2,5-diphenyl-2H-tetrazolium bromide (MTT) assay. Cells were incubated and treated, as described above. One hour after NIR-PIT, the medium was removed and 500 μl of MTT reagent (SIGMA Aldrich; 0.5 mg/ml) was added to each well. After 1 hour incubation, the supernatant was removed and 500 μL of 2-propanol was added to each well to dissolve the crystal formazan dye. After transferring 100 μL of the supernatant to 96 well plate each, absorbance was measured at 570 nm on a microplate reader (Synergy™ H1). For relative quantification, the value of absorbance in each group was normalized to that in the control group.

LL2-luc tumor = conditions: IL15 1 ug i.p. preconditioning + anti-PD-L1-IR700 + NIR light 50 J/cm2
Method: Tumors were established in mice by administration of 5×10^5 LL2 cells s.c. Four days later, IL15 (1 ug i.p.) was administered, followed one day later with anti-PD-L1-IR700 (or vehicle control), followed with or without NIR light (50 J/cm2) another day later.

LL/2-luc tumors = test: CD44-targeted NIR-PIT with or without L-NaAA; assay type: in vivo, C57BL/6 mice
Description: (§1) The images were taken pre- and post-NIR-PIT. ROIs were placed on the tumor. […] ROIs were placed over the entire tumor.

MOC2-luc tumors = test: CD44-targeted NIR-PIT with or without L-NaAA
Method: (§3) The APC was injected 6 days after inoculation of cancer cells into C57BL/6 mice. […] NIR light (690 nm, 150 mW cm-2, 50 J cm-2) was exposed on the next day. […] Upon NIR light exposure, the normal tissue adjacent to the tumor was covered with aluminum foil to ensure that the NIR light exposure is limited in tumor site. Dorsal fluorescence images of IR700 were obtained with the 700 nm fluorescence channel of the Pearl Imager (LI-COR Biosciences). The images were taken pre- and post-NIR-PIT. ROIs were placed on the tumor. The dorsal edema formation of treated mouse 1 day after NIR light irradiation was imaged by a camera. Acute treatment efficacy was evaluated with BLI analysis, in which, D-luciferin (3 mg mouse-1; Gold Biotechnology) was intraperitoneally injected into mice. Luciferase activity was analyzed with a BLI system (Biospace Lab) using relative light units. ROIs were placed over the entire tumor. The counts per minute of relative light units were calculated using M3 Vision Software (Biospace Lab) and converted to the percentage based on those before NIR-PIT using the following formula: [(relative light units after treatment)/(relative light units before treatment)×100(%)]. Bioluminescence im-ages were continually recorded until the onset of depilation-induced skin pigmentation precluded accurate measurement.

MDAMB468 GFP-luc cells = test: In vitro NIR-PIT with reducing agents, PI staining; conditions: 10 mM NaN3
Method: as §2

MC38-luc tumors [6] = test: CD44-targeted NIR-PIT with or without L-NaAA
Method: Photon counts were evaluated with the Photon Imager (Biospace Lab) using relative light units. ROIs were placed over the entire tumor. The counts per minute of relative light units were calculated using M3 Vision Software (Biospace Lab) and converted to the percentage based on those before NIR-PIT using the following formula: [(relative light units after treatment)/(relative light units before treatment)×100(%)]. Chemiluminescent images were continually recorded 1 and 3 hours after NIR-PIT.
as §3
Under pentobarbital anesthesia, MRI was performed on a 3-T scanner using an in-house 10-inch circle shaped mouse receiver coil array (Elition 3T; Philips Medical Systems, Best, Nether-lands) 1 day after NIR light exposure. Scout images were obtained to accurately locate the tumor. All mice underwent T2-weighted fat-saturation imaging (T2WI fat-sat) and short-TI inversion recovery imaging (STIR). All images were obtained in the coronal plane and T2WI fat-sat images were also obtained in the axial plane. All images were analyzed using Image J software, and 3D imaging were recon-structed. The high signal intensity area derived from each image in T2WI fat-sat and STIR was calculated by Image J.

MC38-luc tumor = test: In vivo efficacy of L-NaAA alone; set-up: species or system mice
Description: (C) Luciferase activity calculated from BLI (n=10, mean±SEM; repeated measures two-way ANOVA followed by Tukey's test; N.S., not significant).

MC38-luc tumors [7] = tested on: MC38-luc tumors
Method: ROIs were placed over the entire tumor. […] (A) Treatment schedule.
as §1
Scout images were obtained to accurately locate the tumor.
Single-cell suspensions from tumor samples were pre-pared using following protocol. Whole tumors were incubated in the RPMI 1640 medium (Thermo Fisher Scientific) containing collagenase type IV (1 mg mL^−1; Thermo Fisher Scientific) and DNase I (20 μg mL^−1; Millipore Sigma, Burlington, MA) in 37° C. for 30 minutes, then gently cut with scissors and mashed with the back of the plunger of 3 mL syringe. The tissues were passed through a 70 μm cell strainer (Corning, Corning, NY). A total of 3.0×10^6 cells was stained and data for 5.0×10^5 cells were collected for each tumor. The cells were stained with anti-CTLA4 antibody (Clone; UC10-4B9) from Thermo Fisher Scientific. To distinguish live cells from dead cells, cells were also stained with LIVE/DEAD Fixable Dead Cell Stain (Thermo Fisher Scientific). The fluorescence of the cells was then analyzed with the flow cytometer (FACSLyric, BD Biosciences) and FlowJo software (FlowJo LLC). Dead cells were removed from analysis based on FSC, SSC, and staining with LIVE/DEAD Fixable Dead Cell Stain.

A431 GFP-luc tumor = test: Panitumumab NIR-PIT with or without L-NaAA; assay type: in vivo, athymic mice; conditions: with L-NaAA
Description: as §1

[8] = dose of 3 mg/kg for melanoma therapy; cited from earlier work
[9] = CD44-targeted NIR-PIT with L-NaAA
[10] = with or without L-NaAA injection
[11] = 1 day after CD44-targeted NIR-PIT

With panitumumab NIR-PIT the tumor volume (mEERL-hEGFR tumors [1]; mixed antibody/APC i.v., NIR light 50 J/cm^2 once 1 day later) was “not significantly decreased”, the “mice in which the tumor was cleared” value (mEERL-hEGFR tumors [1]; n=12-13) was 1/12 and the “histologic change of tumor cells (H-E staining)” value (mEERL-hEGFR tumors [2]) was “swelling and vacuolation of the tumor cell”.

For `[N-]=[N+]=[N-]` [NaN3, Sodium azide, reference compound], the “cytotoxicity of Pan-PIT in the presence of NaN3” value (from here on “cytotoxicity of Pan-PIT”) (A431 GFP-luc cells) was “suppression of NIR-PIT cytotoxicity” and the “ligand cleavage (remaining IR700)” value [3] was “ligand cleavage decreased”.

In the case of `C[Si](C)(CCC[N+](CCCS(=O)(=O)O)(CCCS(=O)(=O)O)CCCS(=O)(=O)O)O[Si]1(O[Si](C)(C)CCC[N+](CCCS(=O)(=O)O)(CCCS(=O)(=O)O)CCCS(=O)(=O)O)n2c3c4ccccc4c2N=C2N=C(N=c4c5ccccc5c(n41)=NC1=NC(=N3)c3ccccc31)c1ccccc12` [Pc 3, Bis{3-[Tris(3-Sulfopropyl)]Ammoniopropyldimethylsilvloxide} Silicon Phthalocyanine], the “solubility of Pc 3 after light exposure” value [4] is reported as “dramatically changed its solubility”.

In the case of `Oc1cccc(-c2c3nc(c(-c4cccc(O)c4)c4ccc([nH]4)c(-c4cccc(O)c4)c4nc(c(-c5cccc(O)c5)c5ccc2[nH]5)CC4)C=C3)c1` [Foscan®, meta-tetrahydroxyphenylchlorin], the extinction coefficient [5] is listed as 22000 M⁻¹ cm⁻¹.

With `N[C@@H](CS)C(=O)O` [L-cysteine] the “cytotoxicity of Pan-PIT” value (A431 GFP-luc cells) was “could not reverse the effects of NaN3”, the “cytotoxic damage of Pan-PIT, low concentration of reducing agent” value (A431 GFP-luc cells; L-NaAA low or pharmacological concentrations, L-cysteine 0.001 mM) was “slightly enhanced the cytotoxic damage” and the “cytotoxic damage of Pan-PIT, high concentration of reducing agent” value (A431 GFP-luc cells; L-NaAA over 1 mM, L-cysteine 0.1 mM or higher) was “compromised the cytotoxicity”.

For `C=Cc1c(C)c2cc3nc(c(CC(=O)N[C@@H](CC(=O)[O-])C(=O)[O-])c4[nH]c(cc5nc(cc1[nH]2)C(C)=C5CC)c(C)c4C(=O)[O-])[C@@H](CCC(=O)[O-])[C@@H]3C.[Na+].[Na+].[Na+].[Na+]` [NPe6/Laserphyrin®, mono-L-aspartylchlorin e6], the extinction coefficient [5] is given as 40000 M⁻¹ cm⁻¹.

With pan-IR700 the “cancer cell death (incorporation of propidium iodine and MTT assay)” value (mEERL-hEGFR cells; APC 10 μg/mL 1 h, NIR light 690 nm, read 1 h after NIR-PIT) was “cancer cell death was induced by NIR-PIT in an NIR light-dose dependent manner” and the “cell viability, APC alone” value (mEERL-hEGFR cells; without NIR light) was “Neither NIR light alone nor panitumumab IR700 alone induced significant alterations in cell viability”.

In the case of IL-15: immunoactivator interleukin, the survival (LL2-luc tumor) is reported as “increased survival” and the tumor volume (LL2-luc tumor) is reported as “substantially reduced tumor volume”.

For `O=C1O[C@H]([C@@H](O)CO)C([O-])=C1O.[Na+]` [L-NaAA, L-sodium ascorbate], the body weight (LL/2-luc tumors; [9]) was “no significant difference in body weight was detected”, the “antitumor effects of CD44-targeted NIR-PIT (BLI)” value (LL/2-luc tumors; with L-NaAA) was “not changed” and the “edema formation 1 day after NIR-PIT” value (LL/2-luc tumors; [10]) was “no edema was detected”. For the same compound, the body weight (MOC2-luc tumors; [9]) was “no significant difference in body weight was detected”, the “antitumor effects of CD44-targeted NIR-PIT (BLI)” value (MOC2-luc tumors; with L-NaAA) was “not changed” and the “edema formation 1 day after NIR-PIT” value (MOC2-luc tumors; [10]) was “no edema was detected”. For the same compound, the “cytotoxicity of Pan-PIT” value (MDAMB468 GFP-luc cells) was “restored cytotoxicity of Pan-PIT suppressed by NaN3”, the “edema on T2WI fat-sat MRI” value (MC38-luc tumors [6]; [11]) was “minimal edema was observed just around the treated tumors” and the “high signal intensity area on T2WI fat-sat images” value (MC38-luc tumors [6]; [11]) was “significantly larger in the group treated without L-NaAA”. For the same compound, the “ROS (chemiluminescence imaging with L-012)” value (MC38-luc tumors [6]; CD44-targeted NIR-PIT with vs without L-NaAA) was “significantly lower intensity (lower ROS) on CLI”, the body weight (MC38-luc tumors [6]; NIR-PIT with vs without L-NaAA) was “No significant difference in body weight” and the “edema formation 1 day after NIR-PIT” value (MC38-luc tumors [6]; [10]) was “no edema was detected”. The “tumor growth (BLI)” value (MC38-luc tumor) was “not to affect tumor growth”, the edema formation (MC38-luc tumors [7]; 1 day after CTLA4-targeted NIR-PIT) was “suppressed both macroscopically and by MRI” and the “BLI intensity by day 6 post NIR-PIT” value (MC38-luc tumors [7]; CTLA4-IR700 50 μg, NIR 50 J cm-2, L-NaAA 80 mg mouse-1 i.p.) was “no difference was observed between the two groups”. The ROS (MC38-luc tumors [7]; CTLA4-targeted NIR-PIT with vs without L-NaAA) was “higher ROS was also detected in the NIR-PIT without L-NaAA group”, the “body weight the day after NIR-PIT” value (MC38-luc tumors [7]; NIR-PIT with L-NaAA group) was “significant lower weight” and the “CTLA4hi cells among total live cells” value (MC38-luc tumors [7]; three hours after CTLA4-targeted NIR-PIT) was “selectively depleted in both NIR-PIT with and without L-NaAA groups”. For the same compound, the “efficacy of pan-PIT (BLI)” value (A431 GFP-luc tumor) was “did not affect the efficacy of pan-PIT”.

In the case of Ipilimumab: anti-CTLA4 antibody, the “patients with gastrointestinal symptoms (irAE)” value [8] is given as “about 40%”.

For Photofrin®, the extinction coefficient [5] is listed as 1200 M⁻¹ cm⁻¹.
